Data on 58 compounds can be found in the METLIN SMRT retention time set (Domingo-Almenara et al. 2019).

The series is described as follows: gradient 5% acetonitrile 3 min, to 50% in 2 min, to 85% in 15 min, held 3 min, 100 µL/min. The conditions noted are these: column: Zorbax Extend-C18 2.1 x 50 mm; eluents: water / acetonitrile, 0.1% formic acid. Put shortly: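 Values are retention times taken from adduct peaks that software picked and an analyst inspected. The pure standards were run as mixtures of ~100 molecules on HPLC linked to a quadrupole time-of-flight mass spectrometer, in positive and negative ionization mode. A Zorbax Extend-C18 column (2.1 × 50 mm, 1.8 μm) was used at 100 μL/min with water and acetonitrile, each including 0.1% formic acid.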
With `CSc1cccc2sc(NCc3cccnc3)nc12`, the RP-LC retention time was 590 s.
Compound `CCOC(=O)c1noc2ncnc(NCC3CCN(Cc4cccc(F)c4)CC3)c12` yielded an RP-LC retention time of 705 s.
As for `O=C(c1cccs1)N1CCCC(c2ccnc(-c3ccccc3)n2)C1` (stereo not drawn), the RP-LC retention time was found to be 1020 s.
With `CC(C)c1nc2c(c(=O)n1CC(=O)Nc1ccccc1)CCN(Cc1ccccc1)C2`, the RP-LC retention time worked out at 674 s.
`COC(=O)c1ccccc1NC(=O)NCc1nc(-c2ccccc2)oc1C` showed an RP-LC retention time of 964 s.
To `CC(C)n1cnc(S(=O)(=O)N2CCC(C(=O)NCc3ccc(Cl)cc3)CC2)c1` belongs 749 s.
For the compound `CCc1ccc(S(=O)(=O)N2c3ccccc3NC3=C(C(=O)CCC3)C2c2ccco2)cc1` (stereo not drawn), the RP-LC retention time came out at 923 s.
To `O=C(Nc1ccc(C(F)(F)F)cc1)NC1CCN(c2cc(N3CCOCC3)cnn2)C1` (stereo not drawn) belongs 685 s; to `Cc1ccc(C)c(-c2nnc(NC(=O)c3ccccc3[N+](=O)[O-])o2)c1`, 798 s; to `Cc1ccc(-c2cc3c(N4CCCC(C(=O)NCCC5=CCCCC5)C4)nccn3n2)c(C)c1` (stereo not drawn), 1150 s.
In turn, `Cn1cccc1-c1noc(C2CCN(S(=O)(=O)c3ccc4c(c3)OCCO4)CC2)n1` gave an RP-LC retention time of 1000 s.
For `Cc1noc(-c2ccnc(-n3cnc(C(=O)NC(C)c4ccccc4)c3)c2)n1` (stereo not drawn), the RP-LC retention time turned out to be 867 s.
To `COCCN1C(=O)CCc2cc(NC(=O)c3ccco3)ccc21` belongs 654 s.
Turning to `Cc1ccc(C)c(S(=O)(=O)Nc2ccc3nc(N4CCN(CCC#N)CC4)cc(C(=O)O)c3c2)c1`, the RP-LC retention time amounted to 631 s.
`CCCn1cc(CCNS(=O)(=O)c2ccc(F)c(C)c2)c2cccnc21` yielded an RP-LC retention time of 893 s.
As to `COc1ccc(C(C)NC(=O)c2cn3cc(C)ccc3n2)cc1` (stereo not drawn), the RP-LC retention time was 671 s.
To `CC(C)CNC(=O)N1CC(Oc2ccc(-c3nc(-c4ccccc4)no3)cc2)C1` belongs 1060 s; to `COc1cccc2c(Nc3ccc(N(C)C)cc3)cc(C(=O)N3CCSCC3)nc12`, 682 s; to `O=C(Nc1ccc2c(c1)OCCO2)C1CCCN(C(=O)c2cc(-c3ccncc3)n[nH]2)C1` (stereo not drawn), 584 s.
`CNC(=O)c1c2c(nc3ccccc13)CCC2` gave an RP-LC retention time of 542 s.
For `CC(C)c1nc2cccnc2n1CCN1CCN(C(=O)Nc2ccc(F)cc2F)CC1`, the RP-LC retention time is 589 s.
In the case of `CS(=O)(=O)N1C[C@@H](COc2cccnc2)[C@H](c2ccccn2)C1`, the RP-LC retention time worked out at 554 s.
Consider `CC(=O)N1c2ccc(S(=O)(=O)N3CCCCC3)cc2CC1C(=O)NCCc1ccccc1` (stereo not drawn), for which the RP-LC retention time turned out to be 868 s.
With `O=S(=O)(c1ccc(Cl)cc1)N1CCN(c2ccnc3cc(Cl)ccc23)CC1`, the RP-LC retention time turned out to be 758 s.
Compound `Cc1cc2cc(CNC(=O)Nc3cccc(Cl)c3)ccc2[nH]1` gave an RP-LC retention time of 843 s.
Turning to `O=C(c1ccc(Nc2c(-c3ccccc3)nc3cnccn23)cc1)N1CCOCC1`, the RP-LC retention time was 655 s.
To `Cc1ccc(S(=O)(=O)N2C(=O)CCC2C(=O)Nc2cccc(C)c2C)cc1C` (stereo not drawn) belongs 976 s; to `Cc1ccc(S(=O)(=O)c2cnc(N3CCN(c4ccccc4)CC3)nc2N)cc1C`, 1110 s; to `CCc1ccccc1NC(=O)C1CCCN(S(=O)(=O)c2cn(C(C)C)cn2)C1` (stereo not drawn), 782 s.
Take `Cc1ccc(-c2cc3c(=O)n(Cc4noc(CN5CCCC5)n4)ccn3n2)cc1C`: the RP-LC retention time was 697 s.
With `COc1ccccc1Cc1nc(-c2ccccc2)nn(C2OC(COC(C)=O)C(OC(C)=O)C(OC(C)=O)C2OC(C)=O)c1=S` (stereo not drawn), the RP-LC retention time was found to be 1190 s.
With `Cc1ccc(NCCCc2ccccc2)c(N)c1`, the RP-LC retention time was determined as 728 s.
Regarding `Cc1ccc(Nc2c(-c3cccc(Br)c3)nc3cc(C)ccn23)cc1`, the RP-LC retention time came to 857 s.
The compound `CCCNC(=O)C1CCCN(c2ccc(SCC(=O)Nc3cccc(C)c3)nn2)C1` (stereo not drawn) yielded an RP-LC retention time of 674 s.
`Cc1ncc2c(n1)CCN(C(=O)c1c(F)cccc1Cl)C2` had an RP-LC retention time of 663 s.
`CCc1noc(NC(C)=O)c1-c1ccc(OC)c(S(=O)(=O)NCc2ccc(F)cc2)c1` came in with an RP-LC retention time of 794 s.
`Cc1cc(N(C)C)nc(N2CCN(S(=O)(=O)c3cc(C)c(C)cc3C)CC2)n1` had an RP-LC retention time of 793 s.
To `Clc1ccc(-c2nc3ccc(Cl)cn3c2Nc2ccc3c(c2)OCCO3)cc1` belongs 915 s; to `CC1CCN(S(=O)(=O)c2ccc(C(=O)Nc3nc4c(s3)CCc3ccccc3-4)cc2)CC1`, 1290 s; to `CCN(CC)CCNC(=O)C1CCN(c2nc3cccnc3s2)CC1`, 573 s.
Compound `COc1ccc(OC)c(CNC(=O)c2c(C)sc3ccn(C)c(=O)c23)c1` displayed an RP-LC retention time of 688 s.
`COC(=O)C1=CN(c2ccccc2C)c2cc(F)ccc2S1(=O)=O` displayed an RP-LC retention time of 832 s.
In turn, `Cc1cc(C(=O)N2CCOCC2)nn1CC(=O)NCc1ccc2c(c1)OCO2` gave an RP-LC retention time of 634 s.
On to `CCCN1C(=O)COc2ccc(-c3noc(COc4ccc(F)cc4)n3)cc21`, for which the RP-LC retention time is 1090 s.
`CC(NC(=O)c1ccco1)C(=O)NCc1nn(C)c2ccccc12` (stereo not drawn) had an RP-LC retention time of 646 s.
On to `Cc1nc(Cn2cccc2C(=O)Nc2ccc(Cl)cc2)no1`, for which the RP-LC retention time is 899 s.
The compound `O=c1c2c(CO)c(-c3ccccc3)nn2ccn1Cc1cccc(F)c1` showed an RP-LC retention time of 920 s.
With `COc1ccccc1NC(=O)N(C)CCc1noc(COc2ccc(Cl)cc2)n1`, the RP-LC retention time came to 972 s.
Compound `CCN(CCNS(=O)(=O)c1ccc2c(c1)CCCC(=O)N2)Cc1ccccc1` had an RP-LC retention time of 608 s.
Compound `CCOC(=O)CC(=O)CSc1nc2sc(C)cc2c(=O)n1C` registered an RP-LC retention time of 961 s.
`CN[C@@H](C)C(=O)N[C@H]1CN(C(=O)CC(C)C)CC[C@H]2CC[C@@H](C(=O)NC(c3ccccc3)c3ccccc3)N2C1=O` gave an RP-LC retention time of 757 s.
Consider `CC1CCCN(CCCNC(=O)C(=O)Nc2ccc3nc4n(c(=O)c3c2)CCCCC4)C1` (stereo not drawn), for which the RP-LC retention time turned out to be 599 s.
`COc1ccc(C(=O)Nc2nc(-c3ccc4c(c3)NC(=O)C(C)O4)c(C)s2)cc1OC` (stereo not drawn) yielded an RP-LC retention time of 867 s.
`Cc1cccc(NC(=O)Cn2c(=O)n(-c3ccc(F)cc3)c3ncccc32)c1` gave an RP-LC retention time of 876 s.
As for `CCCn1c(=O)sc2cc(S(=O)(=O)N3CCC(C(=O)Nc4ccc(Cl)cc4)CC3)ccc21`, the RP-LC retention time was 1040 s.
In turn, `CC(C)n1cnc2cc(CNC(=O)c3ccc(F)cc3Cl)ccc21` returned an RP-LC retention time of 619 s.
Take `CCc1nnc2nc(N3CCN(C(=O)c4ccc(Cl)s4)CC3)cc(C)n12`: the RP-LC retention time was found to be 638 s.
`CNS(=O)(=O)c1cccnc1Nc1ccc(F)c(Cl)c1` gave an RP-LC retention time of 973 s.
